# Results: patent US20020026053A1, “Novel 3-(substituted) -2- indolinones compounds and use thereof as inhibitors of protein kinase activity” (priority 1997, published 2002)
# Molecular target: T1, Met receptor (EGFR/Met chimeric cells, EMR) (Homo sapiens, UniProt P08581)
# T1 construct: expressed in transfected cells; the other entry of the earlier key: EGFR (P00533, Epidermal growth factor receptor)
# Test: Met Autophosphorylation Assay
# Format: biochemical
# How it was run: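 Transiently transfected EGFR/Met chimeric (EMR) cells were lysed in HNTG with 1 mM PMSF. Met was captured on plates coated with goat anti-rabbit IgG, then rabbit anti-Met (C-28), using 90 μg lysate/100 μl for 60 min at room temperature. Phosphotyrosine was read by ELISA.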
# T1 sequence (P08581 with tags, fused parts or gaps): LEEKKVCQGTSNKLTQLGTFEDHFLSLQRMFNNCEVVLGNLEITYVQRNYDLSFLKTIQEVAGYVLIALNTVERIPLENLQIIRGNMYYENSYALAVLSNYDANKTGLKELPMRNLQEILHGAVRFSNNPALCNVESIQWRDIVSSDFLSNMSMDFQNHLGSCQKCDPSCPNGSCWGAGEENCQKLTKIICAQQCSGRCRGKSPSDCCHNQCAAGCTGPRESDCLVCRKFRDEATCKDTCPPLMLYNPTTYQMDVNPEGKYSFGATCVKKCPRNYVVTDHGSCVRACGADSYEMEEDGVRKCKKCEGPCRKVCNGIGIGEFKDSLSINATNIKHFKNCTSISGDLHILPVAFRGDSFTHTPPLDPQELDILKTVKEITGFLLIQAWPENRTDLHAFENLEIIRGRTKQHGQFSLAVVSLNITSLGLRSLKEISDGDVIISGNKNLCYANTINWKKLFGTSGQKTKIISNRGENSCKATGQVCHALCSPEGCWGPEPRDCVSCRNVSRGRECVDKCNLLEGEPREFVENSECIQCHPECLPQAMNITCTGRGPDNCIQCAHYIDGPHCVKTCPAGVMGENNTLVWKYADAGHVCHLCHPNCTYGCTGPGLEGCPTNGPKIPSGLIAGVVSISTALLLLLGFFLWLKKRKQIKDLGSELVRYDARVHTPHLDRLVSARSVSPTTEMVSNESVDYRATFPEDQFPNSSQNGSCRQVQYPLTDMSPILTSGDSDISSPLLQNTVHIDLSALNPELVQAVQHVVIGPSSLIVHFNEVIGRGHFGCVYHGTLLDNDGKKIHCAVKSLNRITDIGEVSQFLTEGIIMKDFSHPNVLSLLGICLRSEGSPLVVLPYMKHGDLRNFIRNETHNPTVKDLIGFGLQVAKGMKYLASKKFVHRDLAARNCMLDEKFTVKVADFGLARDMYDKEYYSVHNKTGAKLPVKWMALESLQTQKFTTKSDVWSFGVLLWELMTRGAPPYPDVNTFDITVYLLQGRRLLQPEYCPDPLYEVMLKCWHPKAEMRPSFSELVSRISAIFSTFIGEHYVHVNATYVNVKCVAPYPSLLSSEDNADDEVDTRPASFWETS
row,SMILES,Met Kinase % Inhibition (P.130)
1,O=C1Nc2c(Br)cc(Br)cc2C1=Cc1ccccc1Cl [10736/A11],46.1%
2,Cc1cccc(C=C2C(=O)Nc3ccc(I)cc32)c1 [10736/B04],65.5%
3,COc1cccc(C=C2C(=O)Nc3ccc(I)cc32)c1 [10736/B10],52.5%
4,Cc1c(Br)ccc2c1C(=Cc1ccccc1F)C(=O)N2 [10736/C08],49.2%
5,CCc1ccc(C=C2C(=O)Nc3ccc(S(=O)(=O)Nc4ccc(C(F)(F)F)cc4)cc32)cc1 [10736/E09],53.8%
6,Cc1ccc(C=C2C(=O)Nc3ccc(S(=O)(=O)N4CCOCC4)cc32)cc1 [10736/F05],19.8%
7,O=C1Nc2ccc(S(=O)(=O)N3CCOCC3)cc2C1=Cc1ccc(Cl)cc1 [10736/F02],69.4%
8,O=C1Nc2c(Br)cc(Br)cc2C1=Cc1ccccc1C(F)(F)F [10736/A03],42.6%
9,CNS(=O)(=O)c1ccc2c(c1)C(=Cc1cccc(C)c1)C(=O)N2 [10736/D04],8.1%
10,Cc1ccc(C=C2C(=O)Nc3ccc(Br)c(C)c32)cc1 [10736/C05],44.6%
11,Cc1c(Br)cc(Br)c2c1C(=Cc1ccc(F)cc1Cl)C(=O)N2 [10719/H09],5.8%
12,Cc1c(Br)cc(Br)c2c1C(=Cc1cc(F)cc(F)c1)C(=O)N2 [10735/H04],42.9%
13,Cc1c(Br)ccc2c1C(=Cc1cccc(F)c1)C(=O)N2 [10736/C07],55.6%
14,CNS(=O)(=O)c1ccc2c(c1)C(=Cc1cccc(Cl)c1)C(=O)N2 [10736/D06],14.7%
15,Cc1c(Br)ccc2c1C(=Cc1ccc(Cl)cc1)C(=O)N2 [10736/C02],50.1%
16,Cc1c(Br)cc(Br)c2c1C(=Cc1ccccc1C#N)C(=O)N2 [10735/H07],48.5%
17,CNS(=O)(=O)c1ccc2c(c1)C(=Cc1cccc(F)c1)C(=O)N2 [10736/D07],15.4%
18,O=C1Nc2ccc(S(=O)(=O)N3CCOCC3)cc2C1=Cc1ccccc1F [10736/F08],−0.2%
19,O=C1Nc2ccc(I)cc2C1=Cc1ccccc1Cl [10736/B11],47.0%
20,O=C1Nc2ccc(S(=O)(=O)Nc3ccc(C(F)(F)F)cc3)cc2C1=Cc1cccc(F)c1 [10736/E07],45.9%
21,Cc1c(Br)cc(Br)c2c1C(=Cc1ccc(O)cc1)C(=O)N2 [10719/H07],22.9%
22,O=C1Nc2c(Br)cc(Br)cc2C1=Cc1ccccc1F [10736/A08],58.7%
23,COc1cccc(C=C2C(=O)Nc3ccc(S(=O)(=O)Nc4ccc(C(F)(F)F)cc4)cc32)c1 [10736/E10],37.8%
24,O=C1Nc2ccc(CCCl)cc2C1=Cc1ccc(Cl)cc1Cl [10735/G10],37.8%
25,Cc1cccc(C=C2C(=O)Nc3ccc(S(=O)(=O)N4CCOCC4)cc32)c1 [10736/F04],45.2%

row,SMILES,Met Kinase % Inhibition (P.130)
1,Cc1c(Br)cc(Br)c2c1C(=Cc1c(F)cc(F)cc1F)C(=O)N2 [10720/H02],64.1%
2,Cc1c(Br)cc(Br)c2c1C(=Cc1ccc(-c3ccccc3)cc1)C(=O)N2 [10735/H11],22.8%
3,Cc1ccc(C=C2C(=O)Nc3ccc(S(=O)(=O)Nc4ccc(C(F)(F)F)cc4)cc32)cc1 [10736/E05],57.6%
4,O=C1Nc2ccc(I)cc2C1=Cc1ccc(Cl)cc1 [10736/B02],73.6%
5,O=C1Nc2ccc(I)cc2C1=Cc1ccccc1F [10736/B08],59.3%
6,O=C1Nc2ccc(S(=O)(=O)Nc3ccc(C(F)(F)F)cc3)cc2C1=Cc1cccc(Cl)c1 [10736/E06],66.6%
7,Cc1c(Br)cc(Br)c2c1C(=Cc1ccc(Cl)cc1Cl)C(=O)N2 [10735/H10],29.9%
8,COc1cc(O)ccc1C=C1C(=O)Nc2c(Br)cc(Br)c(C)c21 [10720/H03],40.0%
9,O=C1Nc2ccc(S(=O)(=O)N3CCOCC3)cc2C1=Cc1cccc(Cl)c1 [10736/F06],49.0%
10,O=C1Nc2c(Br)cc(Br)cc2C1=Cc1ccc(Cl)cc1 [10736/A02],72.5%
11,COc1cccc(C=C2C(=O)Nc3ccc(Br)c(C)c32)c1 [10736/C10],18.7%
12,Cc1ccc(C=C2C(=O)Nc3ccc(I)cc32)cc1 [10736/B05],63.9%
13,O=C1Nc2ccc(S(=O)(=O)N3CCOCC3)cc2C1=Cc1ccccc1C(F)(F)F [10736/F03],23.9%
14,Cc1ccc(C=C2C(=O)Nc3c(Br)cc(Br)cc32)cc1 [10736/A05],73.6%
15,Cc1c(Br)cc(Br)c2c1C(=Cc1ccc(F)cc1C(F)(F)F)C(=O)N2 [10719/H11],50.5%
16,Cc1cccc(C=C2C(=O)Nc3c(Br)cc(Br)cc32)c1 [10736/A04],75.2%
17,CCc1ccc(C=C2C(=O)Nc3ccc(S(=O)(=O)N4CCOCC4)cc32)cc1 [10736/F09],40.2%
18,CCc1ccc(C=C2C(=O)Nc3ccc(Br)c(C)c32)cc1 [10736/C09],27.9%
19,Cc1c(Br)cc(Br)c2c1C(=Cc1cccc(C(F)(F)F)c1)C(=O)N2 [10735/H05],49.8%
20,Cc1c(Br)cc(Br)c2c1C(=Cc1c(F)cccc1F)C(=O)N2 [10735/H08],59.2%
21,O=C1Nc2ccc(S(=O)(=O)Nc3ccc(C(F)(F)F)cc3)cc2C1=Cc1ccc(Cl)cc1 [10736/E02],81.5%
22,Cc1c(Br)ccc2c1C(=Cc1ccccc1C(F)(F)F)C(=O)N2 [10736/C03],9.9%
23,O=C1Nc2ccc(I)cc2C1=Cc1ccccc1C(F)(F)F [10736/B03],65.5%
24,CNS(=O)(=O)c1ccc2c(c1)C(=Cc1ccccc1F)C(=O)N2 [10736/D08],13.0%
25,O=C1Nc2ccc(S(=O)(=O)N3CCOCC3)cc2C1=Cc1cccc(F)c1 [10736/F07],10.7%

row,SMILES,Met Kinase % Inhibition (P.130)
1,O=C1Nc2c(Br)cc(Br)cc2C1=Cc1cccc(Cl)c1 [10736/A06],69.7%
2,Cc1c(Br)cc(Br)c2c1C(=Cc1ccc(F)c(F)c1)C(=O)N2 [10735/H03],40.8%
3,CNS(=O)(=O)c1ccc2c(c1)C(=Cc1ccccc1Cl)C(=O)N2 [10736/D11],22.6%
4,COc1cccc(C=C2C(=O)Nc3c(Br)cc(Br)cc32)c1 [10736/A10],65.0%
5,O=C1Nc2ccc(I)cc2C1=Cc1cccc(Cl)c1 [10736/B06],60.6%
6,O=C1Nc2ccc(CCCl)cc2C1=Cc1cccc2ccccc12 [10735/G09],16.8%
7,Cc1c(Br)cc(Br)c2c1C(=Cc1ccc(N(C)C)cc1)C(=O)N2 [10719/H08],20.0%
8,CCc1ccc(C=C2C(=O)Nc3c(Br)cc(Br)cc32)cc1 [10736/A09],69.7%
9,Cc1ccccc1C=C1C(=O)Nc2c(Br)cc(Br)c(C)c21 [10735/H02],29.2%
10,CNS(=O)(=O)c1ccc2c(c1)C(=Cc1ccc(Cl)cc1)C(=O)N2 [10736/D02],44.4%
11,CNS(=O)(=O)c1ccc2c(c1)C(=Cc1ccc(C)cc1)C(=O)N2 [10736/D05],3.9%
12,Cc1c(Br)ccc2c1C(=Cc1ccccc1Cl)C(=O)N2 [10736/C11],11.0%
13,CNS(=O)(=O)c1ccc2c(c1)C(=Cc1ccccc1C(F)(F)F)C(=O)N2 [10736/D03],14.7%
14,CNS(=O)(=O)c1ccc2c(c1)C(=Cc1cccc(OC)c1)C(=O)N2 [10736/D10],16.9%
15,Cc1cccc(C=C2C(=O)Nc3ccc(Br)c(C)c32)c1 [10736/C04],49.0%
16,O=C1Nc2ccc(I)cc2C1=Cc1cccc(F)c1 [10736/B07],87.2%
17,O=C1Nc2c(Br)cc(Br)cc2C1=Cc1cccc(F)c1 [10736/A07],55.2%
18,Cc1c(Br)ccc2c1C(=Cc1cccc(Cl)c1)C(=O)N2 [10736/C06],45.2%
19,O=C1Nc2ccc(CCCl)cc2C1=Cc1ccc(-c2ccccc2)cc1 [10735/G11],23.0%
20,CCc1ccc(C=C2C(=O)Nc3ccc(S(=O)(=O)NC)cc32)cc1 [10736/D09],14.1%
21,Cc1cccc(C=C2C(=O)Nc3ccc(S(=O)(=O)Nc4ccc(C(F)(F)F)cc4)cc32)c1 [10736/E04],61.8%
22,Cc1c(Br)cc(Br)c2c1C(=Cc1cc(C(F)(F)F)cc(C(F)(F)F)c1)C(=O)N2 [10735/H06],57.2%
23,O=C1Nc2ccc(S(=O)(=O)Nc3ccc(C(F)(F)F)cc3)cc2C1=Cc1ccccc1C(F)(F)F [10736/E03],33.0%
